The structures appear in SMILES notation.

This assay relates to B16F10 cells (melanoma). The assay can be described thus: B16F10 melanoma tumor growth in mice (Example 2b). The assay is classed as in vivo, C57BL/6J mice. To be noted: maropitant 30 mg/kg i.p. once a day, anti CTLA-4 5 mg/kg i.p. every other day, FIG. 5. As for the experimental part:
One Lewis Pulmonar Carcinoma cell line: 3LL; and one melanoma cell line: B16F10 (ATCC cell bank; LGC Standards); were used in this study. Both cell lines were maintained in culture in Dulbecco's modified Eagle's medium (DMEM) (Gibco, Thermo Fisher Scientific) supplemented with 10% foetal bovine serum (FBS) (Gibco, Thermo Fisher Scientific), 2 mM L-glutamine (Sigma-Aldrich, Merk) and Peni-Strep (50 U/ml and […]; Gibco, Thermo Fisher Scientific) in a humidified incubator at 37° C. and 5% CO2.
Cerenia® (maropitant citrate injectable solution; Zoetis US) was injected intraperitoneally at a dose of 30 mg/kg, once a day. […]
3LL cells (0.6×10^6 per mouse) or B16F10 cells (1×10^6 per mouse) were subcutaneously injected into the right flank of C57BL/6J mice (Charles River) with matrigel (Matrigel Membrane Matrix, Corning) at 50% v/v. Tumor growth was evaluated every 2/3 days. Animal vital parameters were monitored daily. […]
In order to evaluate the effect of Maropitant and anti CTLA-4 combination in vivo, B16F10 tumor-bearing mice were randomly assigned into four treatment groups as detailed in table 1 (n=6 mice per group) to receive either Maropitant 30 mg/kg, anti CTLA-4 5 mg/kg, the combination of both agents or the equivalent volume of vehicle. Tumor growth was recorded as detailed in Materials and Methods. […]

Regarding `COc1ccc(C(C)(C)C)cc1CN[C@H]1C2CCN(CC2)[C@H]1C(c1ccccc1)c1ccccc1.O=C(O)CC(O)(CC(=O)O)C(=O)O` [Maropitant, maropitant citrate], the “reduction in tumor growth compared to vehicle group” value (after 9 days of treatment) is 28%. The “effect on growth of melanoma tumours (in words)” value (9 days) is “inhibited the grown of melanoma tumours”.

The record behind these values is patent US20220016142A1, “COMBINATION THERAPY FOR TREATMENT OF CANCER” (PLUS VITECH, S.L., priority 2018, published 2022).
